Species: Rattus norvegicus
Assay: Open TG-GATES - Regimen: Single
Type: toxicity, organism-based, Sprague-Dawley
Set-up: regimen Single, gender Male, age 6 weeks
Conditions: in vivo, po, route gavage; for APTT / Bas / Eos / Fbg / Hb / Ht / Lym / MCH / MCHC / MCV / Mono / Neu / PT / Plat / RBC / Ret / WBC: tissue Blood; for KIDNEY_L / KIDNEY_R / KIDNEY_TOTAL: tissue Kidney; for LIVER: tissue Liver; for A/G / ALP / ALT / AST / BUN / CRE / Ca / Cl / DBIL / GLC / IP / K / LDH / Na / PL / RALB / TBIL / TC / TG / TP / gamma-GTP: tissue Plasma
[1] = 200 mg/kg, 3 h, dose level Middle
[2] = 200 mg/kg, 6 h, dose level Middle
[3] = 200 mg/kg, 9 h, dose level Middle
[4] = 200 mg/kg, 24 h, dose level Middle
[5] = 600 mg/kg, 3 h, dose level High
[6] = 600 mg/kg, 6 h, dose level High
[7] = 600 mg/kg, 9 h, dose level High
[8] = 600 mg/kg, 24 h, dose level High

## C[C@](N)(Cc1ccc(O)c(O)c1)C(=O)O [METHYLDOPA]
[1]
  TERMINAL_BW: 187.9 g
  APTT: 15.7 s
  Bas: 0.2%
  Eos: 0.8%
  Fbg: 274 mg/dL
  Hb: 13.1 g/dL
  Ht: 39.2%
  Lym: 79%
  MCH: 21.5 pg
  MCHC: 33.4%
  MCV: 64.6 fL
  Mono: 3.4%
  Neu: 15.8%
  PT: 12.4 s
  Plat: 105.6 x10_4/uL
  RBC: 607 x10_4/ul
  Ret: 10.7%
  WBC: 91.2 x10_2/uL
  KIDNEY_L: 0.9 g
  KIDNEY_R: 0.8 g
  KIDNEY_TOTAL: 1.7 g
  LIVER: 7.8 g
  A/G: 0.9
  ALP: 1861.2 IU/L
  ALT: 55 IU/L
  AST: 80.2 IU/L
  BUN: 9 mg/dL
  CRE: 0.1 mg/dL
  Ca: 11.4 mg/dL
  Cl: 107.2 meq/L
  DBIL: 0.008 mg/dL
  GLC: 205.8 mg/dL
  IP: 9.8 mg/dL
  K: 4.6 meq/L
  LDH: 64.4 IU/L
  Na: 142.2 meq/L
  PL: 129.2 mg/dL
  RALB: 2.6 g/dL
  TBIL: 0.058 mg/dL
  TC: 78.6 mg/dL
  TG: 45 mg/dL
  TP: 5.4 g/dL
  gamma-GTP: 1.2 IU/L
[2]
  TERMINAL_BW: 189 g
  APTT: 16.4 s
  Bas: 0%
  Eos: 0.6%
  Fbg: 267.4 mg/dL
  Hb: 13.5 g/dL
  Ht: 41.1%
  Lym: 73.8%
  MCH: 21.1 pg
  MCHC: 32.8%
  MCV: 64.3 fL
  Mono: 3%
  Neu: 22.2%
  PT: 12.2 s
  Plat: 120.2 x10_4/uL
  RBC: 640.2 x10_4/ul
  Ret: 11.7%
  WBC: 56.8 x10_2/uL
  KIDNEY_L: 0.8 g
  KIDNEY_R: 0.8 g
  KIDNEY_TOTAL: 1.6 g
  LIVER: 7.9 g
  A/G: 0.9
  ALP: 1438.2 IU/L
  ALT: 48.2 IU/L
  AST: 71.6 IU/L
  BUN: 6.6 mg/dL
  CRE: 0.1 mg/dL
  Ca: 11.8 mg/dL
  Cl: 107 meq/L
  DBIL: 0.006 mg/dL
  GLC: 219.4 mg/dL
  IP: 13 mg/dL
  K: 5.3 meq/L
  LDH: 58.8 IU/L
  Na: 144.6 meq/L
  PL: 130.2 mg/dL
  RALB: 2.5 g/dL
  TBIL: 0.054 mg/dL
  TC: 85.8 mg/dL
  TG: 45.8 mg/dL
  TP: 5.3 g/dL
  gamma-GTP: 1 IU/L
[3]
  TERMINAL_BW: 186.6 g
  APTT: 16.1 s
  Bas: 0%
  Eos: 1.2%
  Fbg: 268.6 mg/dL
  Hb: 13.1 g/dL
  Ht: 38.8%
  Lym: 77.6%
  MCH: 22.3 pg
  MCHC: 33.8%
  MCV: 66 fL
  Mono: 2.8%
  Neu: 17.6%
  PT: 12.2 s
  Plat: 121.1 x10_4/uL
  RBC: 588.8 x10_4/ul
  Ret: 10.8%
  WBC: 53.5 x10_2/uL
  KIDNEY_L: 0.8 g
  KIDNEY_R: 0.8 g
  KIDNEY_TOTAL: 1.6 g
  LIVER: 7.2 g
  A/G: 0.9
  ALP: 1466.4 IU/L
  ALT: 43.4 IU/L
  AST: 71.8 IU/L
  BUN: 7 mg/dL
  CRE: 0.1 mg/dL
  Ca: 11 mg/dL
  Cl: 107 meq/L
  DBIL: 0.008 mg/dL
  GLC: 203.2 mg/dL
  IP: 11.2 mg/dL
  K: 4.9 meq/L
  LDH: 57.4 IU/L
  Na: 143.6 meq/L
  PL: 131.6 mg/dL
  RALB: 2.5 g/dL
  TBIL: 0.07 mg/dL
  TC: 83.6 mg/dL
  TG: 49.6 mg/dL
  TP: 5.3 g/dL
  gamma-GTP: 1 IU/L
[4]
  TERMINAL_BW: 192.7 g
  APTT: 16 s
  Bas: 0%
  Eos: 1%
  Fbg: 251.2 mg/dL
  Hb: 13.2 g/dL
  Ht: 39.1%
  Lym: 75.4%
  MCH: 22.1 pg
  MCHC: 33.9%
  MCV: 65.1 fL
  Mono: 2.8%
  Neu: 20.4%
  PT: 12.6 s
  Plat: 115.8 x10_4/uL
  RBC: 600.4 x10_4/ul
  Ret: 9.3%
  WBC: 76.2 x10_2/uL
  KIDNEY_L: 0.9 g
  KIDNEY_R: 0.8 g
  KIDNEY_TOTAL: 1.7 g
  LIVER: 8.9 g
  A/G: 0.9
  ALP: 1671.8 IU/L
  ALT: 58.2 IU/L
  AST: 80.8 IU/L
  BUN: 15.8 mg/dL
  CRE: 0.2 mg/dL
  Ca: 11.4 mg/dL
  Cl: 107.6 meq/L
  DBIL: 0.014 mg/dL
  GLC: 191 mg/dL
  IP: 8.6 mg/dL
  K: 4.6 meq/L
  LDH: 73.6 IU/L
  Na: 144.4 meq/L
  PL: 136.4 mg/dL
  RALB: 2.6 g/dL
  TBIL: 0.064 mg/dL
  TC: 80 mg/dL
  TG: 68.6 mg/dL
  TP: 5.5 g/dL
  gamma-GTP: 1 IU/L
[5]
  TERMINAL_BW: 186.5 g
  APTT: 15.6 s
  Bas: 0%
  Eos: 0.8%
  Fbg: 261.6 mg/dL
  Hb: 13.2 g/dL
  Ht: 39.8%
  Lym: 74.6%
  MCH: 22 pg
  MCHC: 33.1%
  MCV: 66.7 fL
  Mono: 3.4%
  Neu: 20.8%
  PT: 12.2 s
  Plat: 112.5 x10_4/uL
  RBC: 597.2 x10_4/ul
  Ret: 10.6%
  WBC: 68.3 x10_2/uL
  KIDNEY_L: 0.8 g
  KIDNEY_R: 0.8 g
  KIDNEY_TOTAL: 1.6 g
  LIVER: 7.8 g
  A/G: 0.9
  ALP: 1837.6 IU/L
  ALT: 55.2 IU/L
  AST: 84.4 IU/L
  BUN: 9.4 mg/dL
  CRE: 0.1 mg/dL
  Ca: 11.3 mg/dL
  Cl: 108.2 meq/L
  DBIL: 0.018 mg/dL
  GLC: 204.4 mg/dL
  IP: 9.8 mg/dL
  K: 4.6 meq/L
  LDH: 59.6 IU/L
  Na: 143.4 meq/L
  PL: 133.6 mg/dL
  RALB: 2.5 g/dL
  TBIL: 0.054 mg/dL
  TC: 76.6 mg/dL
  TG: 70.8 mg/dL
  TP: 5.4 g/dL
  gamma-GTP: 1 IU/L
[6]
  TERMINAL_BW: 187.6 g
  APTT: 17.1 s
  Bas: 0%
  Eos: 0.8%
  Fbg: 272.2 mg/dL
  Hb: 13.7 g/dL
  Ht: 41.1%
  Lym: 81%
  MCH: 21.7 pg
  MCHC: 33.3%
  MCV: 65.2 fL
  Mono: 2.4%
  Neu: 15.4%
  PT: 12.3 s
  Plat: 136.7 x10_4/uL
  RBC: 631 x10_4/ul
  Ret: 9.9%
  WBC: 49.9 x10_2/uL
  KIDNEY_L: 0.8 g
  KIDNEY_R: 0.8 g
  KIDNEY_TOTAL: 1.7 g
  LIVER: 7.7 g
  A/G: 0.9
  ALP: 1883.6 IU/L
  ALT: 52 IU/L
  AST: 81 IU/L
  BUN: 6 mg/dL
  CRE: 0.1 mg/dL
  Ca: 11.7 mg/dL
  Cl: 105.2 meq/L
  DBIL: 0.006 mg/dL
  GLC: 225.8 mg/dL
  IP: 13.1 mg/dL
  K: 5.4 meq/L
  LDH: 71.8 IU/L
  Na: 144.8 meq/L
  PL: 122 mg/dL
  RALB: 2.6 g/dL
  TBIL: 0.054 mg/dL
  TC: 76.6 mg/dL
  TG: 38 mg/dL
  TP: 5.6 g/dL
  gamma-GTP: 1 IU/L
[7]
  TERMINAL_BW: 188.2 g
  APTT: 17.2 s
  Bas: 0%
  Eos: 0.4%
  Fbg: 262.8 mg/dL
  Hb: 13.5 g/dL
  Ht: 40.3%
  Lym: 79%
  MCH: 22.1 pg
  MCHC: 33.6%
  MCV: 65.8 fL
  Mono: 2.6%
  Neu: 17.4%
  PT: 12.5 s
  Plat: 122.5 x10_4/uL
  RBC: 614.4 x10_4/ul
  Ret: 9.7%
  WBC: 52.4 x10_2/uL
  KIDNEY_L: 0.8 g
  KIDNEY_R: 0.8 g
  KIDNEY_TOTAL: 1.6 g
  LIVER: 7.3 g
  A/G: 0.9
  ALP: 1418.8 IU/L
  ALT: 46.2 IU/L
  AST: 67.8 IU/L
  BUN: 6.2 mg/dL
  CRE: 0.1 mg/dL
  Ca: 11.4 mg/dL
  Cl: 105.6 meq/L
  DBIL: 0.008 mg/dL
  GLC: 220 mg/dL
  IP: 11.8 mg/dL
  K: 4.9 meq/L
  LDH: 62 IU/L
  Na: 144.2 meq/L
  PL: 120 mg/dL
  RALB: 2.5 g/dL
  TBIL: 0.056 mg/dL
  TC: 75.4 mg/dL
  TG: 30.8 mg/dL
  TP: 5.3 g/dL
  gamma-GTP: 1 IU/L
[8]
  TERMINAL_BW: 180.6 g
  APTT: 16.9 s
  Bas: 0%
  Eos: 1%
  Fbg: 251.2 mg/dL
  Hb: 13.4 g/dL
  Ht: 39.6%
  Lym: 76%
  MCH: 21.9 pg
  MCHC: 33.9%
  MCV: 64.5 fL
  Mono: 3%
  Neu: 20%
  PT: 12.5 s
  Plat: 133.6 x10_4/uL
  RBC: 613.2 x10_4/ul
  Ret: 9.5%
  WBC: 49.4 x10_2/uL
  KIDNEY_L: 0.9 g
  KIDNEY_R: 0.9 g
  KIDNEY_TOTAL: 1.8 g
  LIVER: 7.5 g
  A/G: 0.9
  ALP: 1827.4 IU/L
  ALT: 50 IU/L
  AST: 73.4 IU/L
  BUN: 20 mg/dL
  CRE: 0.2 mg/dL
  Ca: 11.4 mg/dL
  Cl: 108.2 meq/L
  DBIL: 0.02 mg/dL
  GLC: 202.2 mg/dL
  IP: 8.8 mg/dL
  K: 4.8 meq/L
  LDH: 63.4 IU/L
  Na: 146.2 meq/L
  PL: 139.4 mg/dL
  RALB: 2.7 g/dL
  TBIL: 0.074 mg/dL
  TC: 84 mg/dL
  TG: 60.6 mg/dL
  TP: 5.7 g/dL
  gamma-GTP: 1 IU/L
